# Assay results as given in patent publication US12624034B2, “Non-covalent modifiers of AKT1 and uses thereof” (Terremoto Biosciences, Inc., priority 2023, dated 2026).
# Read-outs that look alike come from different tables or passages of the source.
# Assays:
# AKT2 = target: T1, AKT2 (Homo sapiens, UniProt P31751); experiment: Live cell AKT2 target engagement by NanoBRET competitive probe displacement in HEK293 cells; format: binding; conditions: 2 h at 37° C., read-out: AKT2 IC50
# T1 construct: expressed in transfected cells; host or cells: HEK293
# T1 sequence (P31751 whole entry): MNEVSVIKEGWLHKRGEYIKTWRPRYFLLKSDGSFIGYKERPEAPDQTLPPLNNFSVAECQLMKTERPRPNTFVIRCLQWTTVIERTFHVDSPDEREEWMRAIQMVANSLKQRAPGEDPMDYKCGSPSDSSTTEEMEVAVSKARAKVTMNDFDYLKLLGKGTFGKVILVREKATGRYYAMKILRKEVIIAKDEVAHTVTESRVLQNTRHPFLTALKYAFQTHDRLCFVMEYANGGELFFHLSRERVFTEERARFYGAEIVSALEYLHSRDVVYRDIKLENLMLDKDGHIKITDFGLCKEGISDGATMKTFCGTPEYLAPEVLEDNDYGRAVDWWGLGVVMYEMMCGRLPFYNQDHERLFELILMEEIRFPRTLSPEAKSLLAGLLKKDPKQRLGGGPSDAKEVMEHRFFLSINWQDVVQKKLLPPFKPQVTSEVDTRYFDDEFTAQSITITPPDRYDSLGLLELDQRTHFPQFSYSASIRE
# AKT1 WT = target: T2, AKT1 WT (Homo sapiens, UniProt P31749); experiment: Live cell AKT1 WT target engagement by NanoBRET competitive probe displacement in HEK293 cells; format: binding; conditions: 2 h at 37° C., read-out: AKT1 WT IC50
# T2 construct: expressed in transfected cells; host or cells: HEK293
# T2 sequence (P31749 whole entry): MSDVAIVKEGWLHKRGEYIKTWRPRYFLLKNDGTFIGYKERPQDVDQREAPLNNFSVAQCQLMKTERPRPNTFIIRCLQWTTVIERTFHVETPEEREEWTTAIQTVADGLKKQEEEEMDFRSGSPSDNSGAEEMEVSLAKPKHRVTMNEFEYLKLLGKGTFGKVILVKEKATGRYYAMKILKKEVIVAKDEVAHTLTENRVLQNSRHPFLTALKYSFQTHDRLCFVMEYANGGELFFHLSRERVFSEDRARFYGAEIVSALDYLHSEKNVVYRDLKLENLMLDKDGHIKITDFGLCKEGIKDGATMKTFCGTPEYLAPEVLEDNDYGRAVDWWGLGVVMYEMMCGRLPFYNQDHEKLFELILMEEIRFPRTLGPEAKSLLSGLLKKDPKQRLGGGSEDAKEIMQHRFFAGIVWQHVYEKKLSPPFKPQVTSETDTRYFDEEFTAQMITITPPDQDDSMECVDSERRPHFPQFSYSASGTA
# [1] = NanoBRET competitive probe displacement, live HEK293 cells
# [2] = NanoBRET live cell target engagement, HEK293 cells
IC50 (AKT2; [1]) [nM],IC50 (AKT1 WT; [1]) [nM],IC50 (AKT2; [2]) [nM],IC50 (AKT1 WT; [2]) [nM],SMILES
3140,38.9,–,–,Nc1ncccc1-c1nc2ccc(-n3ccc(C4CC4)n3)nc2n1-c1ccc2c(c1)CC(F)[C@@H]2NC1CCN(C(=O)C2CC2)CC1 (stereo partly shown) [Compound 480]
–,–,226,30.2,Nc1ncccc1-c1nc2ccc(-n3cccn3)nc2n1-c1ccc2c(c1)CC[C@@H]2NC(=O)c1cc2n(n1)CCC2 [Compound 173]
–,–,> 10000,> 1000,"CC(C)NC(=O)N[C@H]1CCc2cc(-n3c(-c4cccnc4N)nc4ccc(-n5cccn5)nc43)ccc21 [Compound 134, (S)-1-(5-(2-(2-aminopyridin-3-yl)-5-(1H-pyrazol-1-yl)-3H-imidazo[4,5-b]pyridin-3-yl)-2,3-dihydro-1H-inden-1-yl)-3-isopropylurea]"
–,–,351,22.1,Nc1ncccc1-c1nc2ccc(-n3cccn3)nc2n1-c1ccc2c(c1)CC[C@@H]2NC(=O)c1ccc(F)cc1 [Compound 310]
1540,45.2,–,–,COCc1ccn(-c2ccc3nc(-c4cccnc4N)n(-c4ccc5c(c4)CC[C@@H]5NC4CCN(C(=O)C5CC5)CC4)c3n2)n1 [Compound 590]
900,16.7,–,–,"Cc1ccc(C(=O)N[C@H]2CCc3cc(-n4c(-c5ccccc5)nc5ccc(-c6ccn(C7CC7)n6)nc54)ccc32)cn1 [Compound 431, (S)—N-(5-(5-(1-cyclopropyl-1H-pyrazol-3-yl)-2-phenyl-3H-imidazo[4,5-b]pyridin-3-yl)-2,3-dihydro-1H-inden-1-yl)-6-methylnicotinamide]"
1600,72.6,–,–,Nc1ncccc1-c1nc2ccc(-n3ccc(C4CC4)n3)nc2n1-c1ccc2c(c1)CC[C@@H]2NC1CCN(C(=O)C2CC2)CC1 [Compound 442]
795,25.3,–,–,Cc1nnsc1C(=O)N[C@H]1CCc2cc(-n3c(-c4cccnc4N)nc4ccc(-n5cccn5)nc43)ccc21 [Compound 438]
–,–,1110,83.1,Cc1ncccc1C(=O)N[C@H]1CCc2cc(-n3c(-c4cccnc4N)nc4ccc(N5CCOCC5)nc43)ccc21 [Compound 135]
–,–,824,32.1,CC#Cc1ncccc1C(=O)N[C@H]1CCc2cc(-n3c(-c4cccnc4N)nc4ccc(-n5cccn5)nc43)ccc21 [Compound 211]
–,–,151,8.07,Nc1ncccc1-c1nc2ccc(-n3cccn3)nc2n1-c1ccc2c(c1)CC[C@@H]2NC(=O)c1cnc(C(F)F)s1 [Compound 376]
–,–,3230,66.2,Cc1nccnc1C(=O)N[C@H]1CCc2cc(-n3c(-c4cccnc4N)nc4ccc(-n5cccn5)nc43)ccc21 [Compound 118]
4360,170,–,–,Nc1ncccc1-c1nc2ccc(-n3cccn3)nc2n1-c1ccc2c(c1)CC[C@@H]2NC1CCN(C(=O)[C@@H]2C[C@@H]2F)CC1 [Compound 477]
–,–,5170,126,CN[C@H]1CCc2cc(-n3c(-c4cccnc4N)nc4ccc(-n5cccn5)nc43)ccc21 [Compound 339]
–,–,1150,91.8,Cc1nc2ncccc2c(=O)n1[C@H]1CCc2cc(-n3c(-c4cccnc4N)nc4ccc(-n5cccn5)nc43)ccc21 [Compound 180]
–,–,50.1,13.6,Nc1ncccc1-c1nc2ccc(-n3cccn3)nc2n1-c1ccc2c(c1)CC[C@@H]2NC(=O)c1ccc(C(F)(F)F)nc1 [Compound 77]
40.5,3.8,–,–,CN1CCN(c2ccn(-c3ccc4nc(-c5cccnc5N)n(-c5ccc6c(c5)CC[C@@H]6NC5CCN(c6ccn(C)n6)CC5)c4n3)n2)CC1 [Compound 598]
3200,74.3,–,–,Nc1ncccc1-c1nc2ccc(-n3nccn3)nc2n1-c1ccc2c(c1)CC[C@@H]2NC(=O)c1ccc(CO)nc1 [Compound 490]
–,–,181,17.9,Nc1ncccc1-c1nc2ccc(-n3cccn3)nc2n1-c1ccc2c(c1)CC[C@@H]2NC(=O)c1ccc2cccn2c1 [Compound 328]
–,–,4500,178,Nc1ncccc1-c1nc2ccc(-n3cccn3)nc2n1-c1ccc2c(c1)CC[C@@H]2NC1COC1 [Compound 111]
